Columns and labels:
[1] = system: HCV replicons (Huh-7 luc/neo cells, NS3-NS5B regions of HCV type 1b); assay: Replicon assay (Huh-Luc cells, luciferase readout); assay type: cell-based; details: Hepatitis C virus, Huh-7, 72 h, read-out: EC50 (μM) Replicon assay
From the text: This model, while not a complete infection model for HCV, currently is widely accepted as an efficacious model of autonomous HCV RNA replication. […] It will be appreciated that it is important to distinguish between compounds that specifically interfere with HCV functions from those that exert cytotoxic or cytostatic effects in the HCV replicon model, and as a consequence cause a decrease in HCV RNA or linked reporter enzyme concentration. Assays are known in the field for the evaluation of cellular cytotoxicity based for example on the activity of mitochondrial enzymes using fluorogenic redox dyes such as resazurin. Furthermore, cellular counter screens exist for the evaluation of non-selective inhibition of linked reporter gene activity, such as firefly luciferase.
The compounds of formula (I) were examined for activity in the inhibition of HCV RNA replication in a cellular assay. […] In essence, the method was as follows.
The assay utilized the stably transfected cell line Huh-7 luc/neo (hereafter referred to as Huh-Luc). This cell line harbors an RNA encoding a bicistronic expression construct comprising the wild type NS3-NS5B regions of HCV type 1b translated from an internal ribosome entry site (IRES) from encephalomyocarditis virus (EMCV), preceded by a reporter portion (FfL-luciferase), and a selectable marker portion (neo^R, neomycine phosphotransferase). The construct is bordered by 5′ and 3′ NTRs (non-translated regions) from HCV type Ib. Continued culture of the replicon cells in the presence of G418 (neo^R) is dependent on the replication of the HCV RNA. The stably transfected replicon cells that express HCV RNA, which replicates autonomously and to high levels, encoding inter alia luciferase, were used for screening the antiviral compounds.
The replicon cells were plated in 384 well plates in the presence of the test and control compounds which were added in various concentrations. Following an incubation of three days, HCV replication was measured by assaying luciferase activity (using standard luciferase assay substrates and reagents and a Perkin Elmer ViewLux™ ultraHTS microplate imager). […] The inhibitory activity of the compound on luciferase activity was monitored on the Huh-Luc cells, enabling a dose-response curve for each test compound.

HCV NS3/4A protease = HCV NS3/4A protease (Hepatitis C virus genotype 1a (isolate H77) (HCV), UniProt P27958); assay: Inhibition assay (enzymatic assay) of full-length NS3 protease with NS4A cofactor; assay type: biochemical; details: full-length NS3 1 nM, 25 μM NS4A cofactor, 0.5 μM depsipeptide substrate, 30° C., competitive inhibition model
Protocol: The aim of this in vitro assay was to measure the inhibition of HCV NS3/4A protease complexes by the compounds of the present invention.
Inhibitors were dissolved in DMSO, sonicated for 30 sec and vortexed. The solutions were stored at −20° C. between measurements.
The final concentration of DMSO in the assay sample was adjusted to 3.3%. […] A minimum of two replicates was performed for all measurements.

Chain of HCV NS3/4A protease (P27958 1027-1657): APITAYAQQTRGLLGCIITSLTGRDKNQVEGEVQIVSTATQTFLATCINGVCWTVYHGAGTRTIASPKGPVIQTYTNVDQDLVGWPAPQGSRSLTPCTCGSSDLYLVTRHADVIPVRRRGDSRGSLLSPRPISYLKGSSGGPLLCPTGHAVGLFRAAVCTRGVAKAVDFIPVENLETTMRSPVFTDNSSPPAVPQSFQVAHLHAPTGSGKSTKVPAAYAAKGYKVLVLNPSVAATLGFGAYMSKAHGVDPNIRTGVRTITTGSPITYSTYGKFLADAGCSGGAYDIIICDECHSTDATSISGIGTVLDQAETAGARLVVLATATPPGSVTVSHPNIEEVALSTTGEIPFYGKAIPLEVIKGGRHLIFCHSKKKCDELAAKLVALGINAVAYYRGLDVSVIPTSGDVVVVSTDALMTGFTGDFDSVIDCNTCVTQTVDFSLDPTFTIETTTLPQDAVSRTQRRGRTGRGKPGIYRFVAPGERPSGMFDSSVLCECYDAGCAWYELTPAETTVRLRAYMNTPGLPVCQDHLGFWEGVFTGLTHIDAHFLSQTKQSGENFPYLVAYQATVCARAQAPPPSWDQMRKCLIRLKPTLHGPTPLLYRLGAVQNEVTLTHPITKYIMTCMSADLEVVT

Compound | EC50 [1] [µM] | Ki (HCV NS3/4A protease) [µM]
CCOc1cc(O[C@@H]2C[C@H]3C(=O)N[C@]4(C(=O)O)C[C@H]4/C=C\CCCCN(C)C(=O)[C@@H]3C2)c2ccc(OC)cc2n1 [Compound 4, 17-[2-ethoxy-7-methoxyquinolin-4-yloxy]-13-methyl-2,14-dioxo-3,13-diazatricyclo[13.3.0.0^4,6]octadec-7-ene-4-carboxylic acid] | 4.26 | 0.046
CCOc1cc(O[C@@H]2C[C@H]3C(=O)N[C@]4(C(=O)NS(=O)(=O)C5CC5)C[C@H]4/C=C\CCCCN(C)C(=O)[C@@H]3C2)c2ccc(OC)cc2n1 [Compound 5, N-[17-[2-ethoxy-7-methoxyquinolin-4-yloxy]-13-methyl-2,14-dioxo-3,13-diazatricyclo[13.3.0.0^4,6]octadec-7-ene-4-carbonyl](cyclopropyl)-sulfonamide] | 0.014 | 0.0001
CCOc1cc(O[C@@H]2C[C@H]3C(=O)N[C@]4(C(=O)NS(=O)(=O)C5CC5)C[C@H]4/C=C\CCCCN(C)C(=O)[C@@H]3C2)c2ccc(OC)c(Br)c2n1 [Compound 7, N-[17-[8-bromo-2-ethoxy-7-methoxyquinolin-4-yloxy]-13-methyl-2,14-dioxo-3,13-diazatricyclo[13.3.0.0^4,6]octadec-7-ene-4-carbonyl](cyclo-propyl)sulfonamide] | 0.0035 | 0.0001
CCOc1cc(O[C@@H]2C[C@H]3C(=O)N[C@]4(C(=O)NS(=O)(=O)C5CC5)C[C@H]4/C=C\CCCCN(C)C(=O)[C@@H]3C2)c2ccc3c(c2n1)CCO3 [Compound 9, N-[17-[2-ethoxy-8,9-dihydrofuro[2,3-h]quinolin-4-yloxy]-13-methyl-2,14-dioxo-3,13-diazatricyclo[13.3.0.0^4,6]octadec-7-ene-4-carbonyl](cyclo-propyl)sulfonamide] | 0.029 | 0.0008
CCOc1cc(O[C@@H]2C[C@H]3C(=O)N[C@]4(C(=O)O)C[C@H]4/C=C\CCCCN(C)C(=O)[C@@H]3C2)c2cccc(Cl)c2n1 [Compound 10, 17-[8-chloro-2-ethoxyquinolin-4-yloxy]-13-methyl-2,14-dioxo-3,13-diazatricyclo[13.3.0.0^4,6]octadec-7-ene-4-carboxylic acid] | 3.81 | 0.0077
CCOc1cc(O[C@@H]2C[C@H]3C(=O)N[C@]4(C(=O)NS(=O)(=O)C5CC5)C[C@H]4/C=C\CCCCN(C)C(=O)[C@@H]3C2)c2cccc(Cl)c2n1 [Compound 11, N-[17-[8-chloro-2-ethoxyquinolin-4-yloxy]-13-methyl-2,14-dioxo-3,13-diazatricyclo[13.3.0.0^4,6]octadec-7-ene-4-carbonyl](cyclopropyl)-sulfonamide] | 0.0063 | 0.0005
CCOc1cc(O[C@@H]2C[C@H]3C(=O)N[C@]4(C(=O)O)C[C@H]4/C=C\CCCCN(C)C(=O)[C@@H]3C2)c2cccc(C)c2n1 [Compound 12, 17-[2-ethoxy-8-methylquinolin-4-yloxy]-13-methyl-2,14-dioxo-3,13-diazatricyclo[13.3.0.0^4,6]octadec-7-ene-4-carboxylic acid] | 7.5 | 0.017
CCOc1cc(O[C@@H]2C[C@H]3C(=O)N[C@]4(C(=O)NS(=O)(=O)C5CC5)C[C@H]4/C=C\CCCCN(C)C(=O)[C@@H]3C2)c2cccc(C)c2n1 [Compound 13, N-[17-[2-ethoxy-8-methylquinolin-4-yloxy]-13-methyl-2,14-dioxo-3,13-diazatricyclo[13.3.0.0^4,6]octadec-7-ene-4-carbonyl](cyclopropyl)-sulfonamide] | 0.014 | 0.0001
CCOc1cc(O[C@@H]2C[C@H]3C(=O)N[C@]4(C(=O)O)C[C@H]4/C=C\CCCCN(C)C(=O)[C@@H]3C2)c2ccc3c(c2n1)OCO3 [Compound 14, 17-[8-ethoxy[1,3]dioxolo[4,5-h]quinolin-6-yloxy]-13-methyl-2,14-dioxo-3,13-diazatricyclo[13.3.0.0^4,6]octadec-7-ene-4-carboxylic acid] | 3.3 | 0.058
CCOc1cc(O[C@@H]2C[C@H]3C(=O)N[C@]4(C(=O)NS(=O)(=O)C5CC5)C[C@H]4/C=C\CCCCN(C)C(=O)[C@@H]3C2)c2ccc3c(c2n1)OCO3 [Compound 15, N-[17-[8-ethoxy[1,3]dioxolo[4,5-h]quinolin-6-yloxy]-13-methyl-2,14-dioxo-3,13-diazatricyclo[13.3.0.0^4,6]octadec-7-ene-4-carbonyl]-(cyclo-propyl)sulfonamide] | 0.0035 | 0.0002
